In US10647699B2, “Substituted 2-oxyimidazolylcarboxamides as pesticides” (Bayer CropScience Aktiengesellschaft, priority 2016, dated 2020):
Like-named read-outs stand apart in the source and are kept apart here.

Experiments:
[1] = log P by HPLC on reversed-phase columns (OECD Guideline 117), neutral range; assay type: physicochemical; conditions: for chromatographic logP: reversed-phase (C18) HPLC column, read-out: LogP-neutral
Myzus persicae [2] = assay: Myzus persicae spray test (MYZUPE), Chinese cabbage leaf discs; assay type: in vivo; conditions: for Emax at 100 g/ha / pest or weed control at 500 g/ha: Myzus persicae, foliar; for Emax at 100 g/ha: read-out: % efficacy; for pest or weed control at 500 g/ha / efficacy: application rate 500 g/ha; for pest or weed control at 500 g/ha: read-out: efficacy
Description: Myzus persicae—Spray Test
(§1) To produce a suitable preparation of active compound, 1 part by weight of active compound is dissolved using the specified parts by weight of solvent and made up with water containing an emulsifier concentration of 1000 ppm until the desired concentration is attained. To produce further test concentrations, the formulation is diluted with emulsifier-containing water.
Discs of Chinese cabbage leaves (Brassica pekinensis) infested by all stages of the green peach aphid (Myzus persicae) are sprayed with an active compound formulation of the desired concentration.
After 5 or 6 days, the efficacy in % is determined. 100% means that all the aphids have been killed; 0% means that no aphids have been killed.
Myzus persicae—Spray Test (MYZUPE)
Discs of Chinese cabbage leaves (Brassica pekinensis) infested by all stages of the green peach aphid (Myzus persicae) are sprayed with an active compound preparation of the desired concentration.
After the desired period of time, the efficacy in % is determined. 100% means that all the aphids have been killed; 0% means that no aphids have been killed.

Tetranychus urticae = Tetranychus urticae spray test, OP-resistant, bean leaf discs; assay type: in vivo; conditions: after 6 days, application rate 500 g/ha
Description: Tetranychus urticae—Spray Test, OP-Resistant
as §1
Discs of bean leaves (Phaseolus vulgaris) infested with all stages of the greenhouse red spider mite (Tetranychus urticae) are sprayed with an active compound formulation of the desired concentration.
After 6 days, the efficacy in % is determined. 100% means that all the spider mites have been killed; 0% means that no spider mites have been killed.

Aphis gossypii = Aphis gossypii spray test on cotton plants; assay type: in vivo; conditions: after 6 days, application rate 20 ppm, cotton plants; for pest or weed control at 20 ppm: Aphis gossypii, 144 h, read-out: efficacy (kill)
Description: Aphis gossypii—Spray Test
Solvent: 14 parts by weight of dimethylformamide
Emulsifier: alkylaryl polyglycol ether
To produce a suitable preparation of active compound, 1 part by weight of active compound is dissolved using the specified parts by weight of solvent and made up with water containing an emulsifier concentration of 1000 ppm until the desired concentration is attained. To produce further test concentrations, the formulation is diluted with emulsifier-containing water. If the addition of ammonium salts or/and penetrants is required, these are each added in a concentration of 1000 ppm to the formulation solution.
Cotton plants (Gossypium hirsutum) which are heavily infested by the cotton aphid (Aphis gossypii) are sprayed with an active compound formulation of the desired concentration.
After 6 days, the kill in % is determined. 100% means that all the aphids have been killed; 0% means that no aphids have been killed.

Myzus persicae [3] = assay: Myzus persicae oral test (MYZUPE O); assay type: in vivo; conditions: for Emax at 0.8 ppm / pest or weed control at 20 ppm / Emax at 4 ppm: Myzus persicae, po, 120 h; for Emax at 0.8 ppm / Emax at 4 ppm / % efficacy: MYZUPE O, 5 dat; for Emax at 0.8 ppm / Emax at 4 ppm: read-out: % efficacy; for pest or weed control at 20 ppm / efficacy: after 5 days, application rate 20 ppm; for pest or weed control at 20 ppm: read-out: efficacy
Description: Solvent: 100 parts by weight of acetone
To produce a suitable preparation of active compound, 1 part by weight of active compound is dissolved using the specified parts by weight of solvent and made up with water until the desired concentration is attained.
50 μl of the active compound preparation are transferred into microtitre plates and made up to a final volume of 200 μl with 150 μl of IPL41 insect medium (33%+15% sugar). Subsequently, the plates are sealed with parafilm, which a mixed population of green peach aphids (Myzus persicae) within a second microtitre plate is able to puncture and imbibe the solution through it.
After 5 days, the efficacy in % is determined. 100% means that all the aphids have been killed; 0% means that no aphids have been killed.
Myzus persicae—Oral Test (MYZUPE O)
After 5 or 6 days (dat), the efficacy in % is determined. 100% means that all the aphids have been killed; 0% means that no aphids have been killed.

[4] = 144 h, MYZUPE, 100 g of ai/ha, 6 dat
[5] = 120 h, MYZUPE, 100 g of ai/ha, 5 dat

| SMILES | LogP-neutral ([1]; HPLC, neutral range pH 7.8) | efficacy (Myzus persicae [2]; after 5 days) [%] | efficacy (kill) (Aphis gossypii) [%] | efficacy (Myzus persicae [3]) [%] | LogP-neutral ([1]; pH 7.8) | also measured |
| --- | --- | --- | --- | --- | --- | --- |
| CN(C(=O)c1cnc(Oc2cc(F)ccc2F)n1C)c1cccnc1 [Example II-14] |  |  |  |  |  | chromatographic logP ([1]; HPLC, neutral range pH 7.8): 1.87; Emax at 100 g/ha (Myzus persicae [2]; [4]): 90%; pest or weed control at 500 g/ha (Myzus persicae [2]; 144 h, after 6 days): 100%; efficacy (Tetranychus urticae): 90%; pest or weed control at 20 ppm (Aphis gossypii): 99%; Emax at 0.8 ppm (Myzus persicae [3]; 0.8 ppm): 90%; pest or weed control at 20 ppm (Myzus persicae [3]): 100% |
| CN(C(=O)c1cnc(OCCC(F)(F)F)n1C)c1cccnc1 [Example II-23] |  |  |  |  |  | Emax at 100 g/ha (Myzus persicae [2]; [4]): 90%; pest or weed control at 500 g/ha (Myzus persicae [2]; 144 h, after 6 days): 90%; efficacy (Tetranychus urticae): 100%; pest or weed control at 20 ppm (Aphis gossypii): 95%; Emax at 0.8 ppm (Myzus persicae [3]; 0.8 ppm): 100%; Emax at 4 ppm (Myzus persicae [3]; 4 ppm): 100%; pest or weed control at 20 ppm (Myzus persicae [3]): 100% |
| CN(C(=O)c1cnc(Oc2ccccc2)n1C)c1cccnc1 [Example II-24] | 1.68 | 100 | 98 | 100 |  |  |
| CN(C(=O)c1cnc(Oc2cc(F)cc(F)c2)n1C)c1cccnc1 [Example II-25] |  | 90 | 90 | 100 | 2.01 |  |
| CSc1cccc(Oc2ncc(C(=O)N(C)c3cccnc3)n2C)c1 [Example II-26] |  | 100 | 100 | 100 | 2.09 |  |
| CN(C(=O)c1cnc(Oc2cccc(OC(F)(F)F)c2)n1C)c1cccnc1 [Example II-27] |  | 100 | 98 | 100 | 2.52 |  |
| CN(C(=O)c1cnc(Oc2cccc(C(F)(F)F)c2)n1C)c1cccnc1 [Example II-29] |  |  |  |  |  | chromatographic logP ([1]; HPLC, neutral range pH 7.8): 2.37; Emax at 100 g/ha (Myzus persicae [2]; [5]): 90%; pest or weed control at 500 g/ha (Myzus persicae [2]; 120 h, after 5 days): 100%; pest or weed control at 20 ppm (Aphis gossypii): 100%; Emax at 0.8 ppm (Myzus persicae [3]; 0.8 ppm): 100%; Emax at 4 ppm (Myzus persicae [3]; 4 ppm): 100%; pest or weed control at 20 ppm (Myzus persicae [3]): 100% |
| CN(C(=O)c1cnc(OCCSCC(F)(F)F)n1C)c1cccnc1 [Example II-30] |  | 100 | 100 | 100 | 1.97 | % efficacy (Myzus persicae [2]; MYZUPE, 100 g of ai/ha, 5 dat): 90%; % efficacy (Myzus persicae [3]; 0.8 ppm): 100%; % efficacy (Myzus persicae [3]; 4 ppm): 100% |
| CN(C(=O)c1cnc(OC2CCSCC2)n1C)c1cccnc1 [Example II-31] |  |  |  |  |  | chromatographic logP ([1]; HPLC, neutral range pH 7.8): 1.63; Emax at 100 g/ha (Myzus persicae [2]; [5]): 90%; pest or weed control at 500 g/ha (Myzus persicae [2]; 120 h, after 5 days): 100%; pest or weed control at 20 ppm (Aphis gossypii): 98%; Emax at 0.8 ppm (Myzus persicae [3]; 0.8 ppm): 70%; Emax at 4 ppm (Myzus persicae [3]; 4 ppm): 100%; pest or weed control at 20 ppm (Myzus persicae [3]): 100% |
| CN(C(=O)c1cnc(OC2CCOCC2)n1C)c1cccnc1 [Example II-32] |  | 90 | 100 | 100 | 1.18 |  |
| CN(C(=O)c1cnc(OCCCF)n1C)c1cccnc1 [Example II-33] | 1.26 | 90 | 100 | 100 |  |  |
| CN(C(=O)c1cnc(OCCC(F)(C(F)(F)F)C(F)(F)F)n1C)c1cccnc1 [Example II-34] |  | 100 | 100 | 100 | 2.51 |  |
| CN(C(=O)c1cnc(OC2CCOC2)n1C)c1cccnc1 (centres unmarked) [Example II-35] | 1 | 90 | 100 | 100 |  |  |
| CCN(C(=O)c1cnc(Oc2ccc(Cl)nc2)n1C)c1cccnc1 [Example II-36] | 1.79 | 90 | 100 | 100 |  |  |
| CN(C(=O)c1cnc(OCCCC#N)n1C)c1cccnc1 [Example II-38] | 1.08 | 90 | 98 | 100 |  |  |
| CN(C(=O)c1cnc(Oc2cncc(Cl)c2)n1C)c1cccnc1 [Example II-41] |  | 100 | 100 | 100 | 1.57 |  |
| CN(C(=O)c1cnc(Oc2cncc(F)c2)n1C)c1cccnc1 [Example II-42] |  | 90 | 100 | 100 | 1.3 |  |
| CN(C(=O)c1cnc(Oc2cncc(C(F)(F)F)c2)n1C)c1cccnc1 [Example II-43] |  | 90 | 100 | 100 | 1.83 |  |
| CCN(C(=O)c1cnc(OC(C)C)n1C)c1cccnc1 [Example II-46] |  | 100 | 100 | 100 | 1.7 |  |
| CCN(C(=O)c1cnc(OCCCC#N)n1C)c1cccnc1 [Example II-47] | 1.33 | 90 | 100 | 100 |  |  |
| CN(C(=O)c1cnc(Oc2ccc(C#N)nc2)n1C)c1cccnc1 [Example II-58] | 1.1 | 90 | 100 | 100 |  |  |
| CN(C(=O)c1cnc(Oc2cccc(Oc3ccccc3)c2)n1C)c1cccnc1 [Example II-81] |  |  |  |  | 2.72 | efficacy (Tetranychus urticae): 100% |
| CCCCSc1cccc(Oc2ncc(C(=O)N(C)c3cccnc3)n2C)c1 [Example II-82] |  | 100 |  | 100 | 3.19 | efficacy (Tetranychus urticae): 100% |
| CN(C(=O)c1cnc(Oc2cc(Cl)cc(C(F)(F)F)c2)n1C)c1cccnc1 [Example II-87] |  | 90 |  | 100 | 2.87 | efficacy (Tetranychus urticae): 90% |
| CN(C(=O)c1cnc(Oc2ccc(F)c(Cl)c2)n1C)c1cccnc1 [Example II-89] | 2.17 | 100 |  | 100 |  | efficacy (Tetranychus urticae): 100% |
| Cn1c(C(=O)N(c2cccnc2)C2CC2)cnc1Oc1cccc(C(F)(F)F)c1 [Example II-94] |  |  |  | 100 | 2.59 | efficacy (Tetranychus urticae): 90% |
